From US4470993A, “Therapeutical use of known 5-aminomethyl oxazolidine-2-one derivatives” (Delalande S.A., priority 1982, dated 1984) come the findings set out here.

Molecules are shown by their SMILES.

Data set [1] in a line: Acute toxicity, oral, in mice (Miller and Tainter). The note with it: mouse, in vivo, read-out: Acute toxicity LD 50. On the procedure:
The acute toxicity is determined orally on mice according to the method described by MILLER and TAINTER in Proc. Soc. Exp. Biol. Med. 57, 261 (1944).

The subject of the next data set is A type monoamine oxidase. The experiment in a line: Ex vivo monoamine oxidase inhibition in rat brain homogenate, serotonine substrate. The following applies: rats, 5 mg/kg p.o.; for Monoamine oxidase inhibition effect, A Type monoamine oxidase, 8 hours: 8 hours after administration; for Monoamine oxidase inhibition effect, A Type monoamine oxidase, 24 hours: 24 hours after administration; for Monoamine oxidase inhibition effect, A Type monoamine oxidase, max.: maximum effect observed between 30 minutes and 8 hours. Further details: unit not given here. As to the method: (§1) This activity has been shown ex vivo on rats to which are orally administered the compounds employed in the invention as a 0.5% suspension in methylcellulose. Then the rats are decapitated at various times (30 mn, 1 hour, 2 hours, 4 hours, 8 hours and 24 hours after the administration). The brains are taken up, weighed and homogeneized and the determination of the monoamine oxidase inhibition effect is carried out by using serotonine (specific substrate of the A type monoamine oxidase) and phenylethylamine (specific substrate of B type monoamine oxidase) according to the method described by J. P. KAN and M. STROLIN-BENEDETTI in Life Sciences 26, 2165 (1980).
(§2) To illustrate the invention, in table below the results thus obtained are given. (The maximum effect is that observed between 30 minutes and 8 hours).

The subject of the next data set is B type monoamine oxidase. The experiment in a line: Ex vivo monoamine oxidase inhibition in rat brain homogenate, phenylethylamine substrate. More on the design: unit not given here. The following applies: rats, 5 mg/kg p.o.; for Monoamine oxidase inhibition effect, B Type monoamine oxidase, 8 hours: 8 hours after administration; for Monoamine oxidase inhibition effect, B Type monoamine oxidase, 24 hours: 24 hours after administration; for Monoamine oxidase inhibition effect, B Type monoamine oxidase, max.: maximum effect observed between 30 minutes and 8 hours. On the procedure: as §1, §2

Take `CNCC1CN(c2ccc(OCC3CCCCC3)cc2)C(=O)O1` (stereo not shown) [cyclohexylmethyl, N--methylamino]: in data set [1], the LD50 was greater than 2000 mg/kg. In the data set with A type monoamine oxidase, the “Monoamine oxidase inhibition effect, A Type monoamine oxidase, 8 hours” value came to 17; the “Monoamine oxidase inhibition effect, A Type monoamine oxidase, 24 hours” value came to 6; the “Monoamine oxidase inhibition effect, A Type monoamine oxidase, max.” value was 21. In addition, in the data set on B type monoamine oxidase, the “Monoamine oxidase inhibition effect, B Type monoamine oxidase, 8 hours” value turned out to be 42; the “Monoamine oxidase inhibition effect, B Type monoamine oxidase, 24 hours” value is 6; the “Monoamine oxidase inhibition effect, B Type monoamine oxidase, max.” value is given as 67.
For the compound `NCC1CN(c2ccc(OCC3CCCCC3)cc2)C(=O)O1` (stereo not shown) [cyclohexylmethyl, amino], the LD50 in data set [1] is greater than 2000 mg/kg. Further, in the data set with A type monoamine oxidase, the “Monoamine oxidase inhibition effect, A Type monoamine oxidase, 8 hours” value was 13; the “Monoamine oxidase inhibition effect, A Type monoamine oxidase, 24 hours” value is recorded as 5; the “Monoamine oxidase inhibition effect, A Type monoamine oxidase, max.” value turned out to be 23. Besides, in the data set with B type monoamine oxidase, the “Monoamine oxidase inhibition effect, B Type monoamine oxidase, 8 hours” value amounted to 60; the “Monoamine oxidase inhibition effect, B Type monoamine oxidase, 24 hours” value is given as 3; the “Monoamine oxidase inhibition effect, B Type monoamine oxidase, max.” value was determined as 81.
Regarding `CNCC1CN(c2ccc(OCc3ccccc3)cc2)C(=O)O1` (stereo not shown) [benzyl, N--methylamino], in data set [1], the LD50 was greater than 2000 mg/kg. In the data set on A type monoamine oxidase, the “Monoamine oxidase inhibition effect, A Type monoamine oxidase, 8 hours” value worked out at 11; the “Monoamine oxidase inhibition effect, A Type monoamine oxidase, 24 hours” value amounted to 10; the “Monoamine oxidase inhibition effect, A Type monoamine oxidase, max.” value is reported as 23. Besides, in the data set with B type monoamine oxidase, the “Monoamine oxidase inhibition effect, B Type monoamine oxidase, 8 hours” value worked out at 43; the “Monoamine oxidase inhibition effect, B Type monoamine oxidase, 24 hours” value is reported as 31; the “Monoamine oxidase inhibition effect, B Type monoamine oxidase, max.” value worked out at 78.
For `NCC1CN(c2ccc(OCc3ccc(F)cc3)cc2)C(=O)O1` (stereo not shown) [p-fluorobenzyl, amino], in data set [1], the LD50 is greater than 2000 mg/kg. In addition, in the data set on A type monoamine oxidase, the “Monoamine oxidase inhibition effect, A Type monoamine oxidase, 8 hours” value is 20; the “Monoamine oxidase inhibition effect, A Type monoamine oxidase, 24 hours” value stood at 3; the “Monoamine oxidase inhibition effect, A Type monoamine oxidase, max.” value is recorded as 43. Also, in the data set on B type monoamine oxidase, the “Monoamine oxidase inhibition effect, B Type monoamine oxidase, 8 hours” value was found to be 82; the “Monoamine oxidase inhibition effect, B Type monoamine oxidase, 24 hours” value stood at 61; the “Monoamine oxidase inhibition effect, B Type monoamine oxidase, max.” value is listed as 88.
In the case of `NCC1CN(c2ccc(OCc3ccccc3)cc2)C(=O)O1` (stereo not shown) [benzyl, amino], in data set [1], the LD50 is greater than 2000 mg/kg. Moreover, in the data set with A type monoamine oxidase, the “Monoamine oxidase inhibition effect, A Type monoamine oxidase, 8 hours” value came out at 4; the “Monoamine oxidase inhibition effect, A Type monoamine oxidase, 24 hours” value is reported as 4; the “Monoamine oxidase inhibition effect, A Type monoamine oxidase, max.” value amounted to 19. Also, in the data set on B type monoamine oxidase, the “Monoamine oxidase inhibition effect, B Type monoamine oxidase, 8 hours” value is reported as 69; the “Monoamine oxidase inhibition effect, B Type monoamine oxidase, 24 hours” value came out at 45; the “Monoamine oxidase inhibition effect, B Type monoamine oxidase, max.” value is listed as 85.
On to `NCC1CN(c2ccc(OCc3cccc(Cl)c3)cc2)C(=O)O1` (stereo not shown) [m-chlorobenzyl, amino], for which, in data set [1], the LD50 was greater than 2000 mg/kg. Moreover, in the data set with A type monoamine oxidase, the “Monoamine oxidase inhibition effect, A Type monoamine oxidase, 8 hours” value was found to be 18; the “Monoamine oxidase inhibition effect, A Type monoamine oxidase, 24 hours” value worked out at 6; the “Monoamine oxidase inhibition effect, A Type monoamine oxidase, max.” value amounted to 30. Further, in the data set on B type monoamine oxidase, the “Monoamine oxidase inhibition effect, B Type monoamine oxidase, 8 hours” value amounted to 85; the “Monoamine oxidase inhibition effect, B Type monoamine oxidase, 24 hours” value was determined as 67; the “Monoamine oxidase inhibition effect, B Type monoamine oxidase, max.” value worked out at 88.
Take `NCC1CN(c2ccc(OCC3CCCC3)cc2)C(=O)O1` (stereo not shown) [cyclopentylmethyl, amino]: in data set [1], the LD50 is greater than 2000 mg/kg. For the same compound, in the data set on A type monoamine oxidase, the “Monoamine oxidase inhibition effect, A Type monoamine oxidase, 8 hours” value turned out to be 9; the “Monoamine oxidase inhibition effect, A Type monoamine oxidase, 24 hours” value is 0; the “Monoamine oxidase inhibition effect, A Type monoamine oxidase, max.” value was 30. Also, in the data set on B type monoamine oxidase, the “Monoamine oxidase inhibition effect, B Type monoamine oxidase, 8 hours” value came to 17; the “Monoamine oxidase inhibition effect, B Type monoamine oxidase, 24 hours” value is recorded as 2; the “Monoamine oxidase inhibition effect, B Type monoamine oxidase, max.” value was determined as 78.
With `CNCC1CN(c2ccc(OCc3cccc(Cl)c3)cc2)C(=O)O1` (stereo not shown) [m-chlorobenzyl, N--methylamino], in data set [1], the LD50 was greater than 2000 mg/kg. Further, in the data set on A type monoamine oxidase, the “Monoamine oxidase inhibition effect, A Type monoamine oxidase, 8 hours” value stood at 12; the “Monoamine oxidase inhibition effect, A Type monoamine oxidase, 24 hours” value worked out at 1; the “Monoamine oxidase inhibition effect, A Type monoamine oxidase, max.” value came to 28. Further, in the data set on B type monoamine oxidase, the “Monoamine oxidase inhibition effect, B Type monoamine oxidase, 8 hours” value is 67; the “Monoamine oxidase inhibition effect, B Type monoamine oxidase, 24 hours” value amounted to 27; the “Monoamine oxidase inhibition effect, B Type monoamine oxidase, max.” value is 83.
In the case of `CC(C)CCOc1ccc(N2CC(CN)OC2=O)cc1` (stereo not shown) [3-methylbutyl, amino], the LD50 in data set [1] was greater than 2000 mg/kg. Further, in the data set on A type monoamine oxidase, the “Monoamine oxidase inhibition effect, A Type monoamine oxidase, 8 hours” value is recorded as 2; the “Monoamine oxidase inhibition effect, A Type monoamine oxidase, 24 hours” value was 0; the “Monoamine oxidase inhibition effect, A Type monoamine oxidase, max.” value was determined as 29. For the same compound, in the data set with B type monoamine oxidase, the “Monoamine oxidase inhibition effect, B Type monoamine oxidase, 8 hours” value was 8; the “Monoamine oxidase inhibition effect, B Type monoamine oxidase, 24 hours” value was 1; the “Monoamine oxidase inhibition effect, B Type monoamine oxidase, max.” value worked out at 69.
In the case of `CNCC1CN(c2ccc(OCc3ccc(F)cc3)cc2)C(=O)O1` (stereo not shown) [p-fluorobenzyl, N--methylamino], the LD50 in data set [1] is greater than 2000 mg/kg. Further, in the data set on A type monoamine oxidase, the “Monoamine oxidase inhibition effect, A Type monoamine oxidase, 8 hours” value is listed as 23; the “Monoamine oxidase inhibition effect, A Type monoamine oxidase, 24 hours” value was 0; the “Monoamine oxidase inhibition effect, A Type monoamine oxidase, max.” value is recorded as 44. In the data set with B type monoamine oxidase, the “Monoamine oxidase inhibition effect, B Type monoamine oxidase, 8 hours” value came to 63; the “Monoamine oxidase inhibition effect, B Type monoamine oxidase, 24 hours” value amounted to 27; the “Monoamine oxidase inhibition effect, B Type monoamine oxidase, max.” value is recorded as 85.
